Experimental data from US7381554B2, “UDP-N-acetylglucosamine: galactose-β1,3-N-acetylgalactosamine-α-R/N-acetylglucosamine-β1,3-N-acetylgalactosamine-α-R (GlcNAc to GalNAc) β1,6-N-acetylglucosaminyltransferase, C2/4GnT” (Glycozym ApS, priority 1998, dated 2008).

Tests used:
C2/4GnT = target: T1, C2/4GnT (Homo sapiens, UniProt O95395); assay: C2/4GnT GlcNAc-transferase activity assay with acceptor/donor substrates; type: biochemical; conditions: for Substrate specificity: C2/4GnT activity, 2 mM: acceptor substrate 2 mM; for Substrate specificity: C2/4GnT activity, 2 mM / Substrate specificity: C2/4GnT activity, 10 mM: partially purified media of infected High Five cells, background subtracted; for Substrate specificity: C2/4GnT activity, 10 mM: acceptor substrate 10 mM; for C2/4GnT activity with acceptor substrate (in words): as acceptor substrate; for C2/4GnT activity with donor substrate (in words): as donor substrate, data not shown; for Substrate inhibition of C2/4GnT enzyme activity: high acceptor concentrations up to 20 mM
T1 construct: An expression construct designed to encode amino acid residues 31-438 of C2/4GnT was prepared by PCR using P1 DNA; gp67 secretion signal of vector pAcGP67A (own knowledge of the vector); made in house; host or cells: Sf9 cells (culture supernatant, standard assays); High Five cells (partially purified enzyme, kinetics)
T1 sequence (O95395 31-438): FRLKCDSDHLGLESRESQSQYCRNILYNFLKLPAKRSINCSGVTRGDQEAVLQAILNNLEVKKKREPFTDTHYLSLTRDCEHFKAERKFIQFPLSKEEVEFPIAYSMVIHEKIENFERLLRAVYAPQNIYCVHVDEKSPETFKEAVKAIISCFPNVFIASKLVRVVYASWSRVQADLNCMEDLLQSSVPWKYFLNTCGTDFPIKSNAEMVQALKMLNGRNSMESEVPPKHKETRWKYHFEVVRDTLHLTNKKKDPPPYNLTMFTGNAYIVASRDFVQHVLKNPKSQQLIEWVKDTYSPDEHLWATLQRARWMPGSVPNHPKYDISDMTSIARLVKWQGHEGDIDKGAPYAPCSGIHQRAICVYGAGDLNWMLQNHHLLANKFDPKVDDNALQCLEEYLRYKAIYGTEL
Protocol: (§1) An expression construct designed to encode amino acid residues 31-438 of C2/4GnT was prepared by PCR using P1 DNA, and the primer pair TSHC55 (5′-[…]-3′) (SEQ ID NO:8) and TSHC45 (SEQ ID NO:5) (FIG. 2). The PCR product was cloned into the EcoRI site of pAcGP67A (PharMingen), and the insert was fully sequenced. pAcGP67-C2/4GnT-sol was co-transfected with Baculo-Gold™ DNA (PharMingen) as described previously (14). Recombinant Baculo-virus were obtained after two successive amplifications in Sf9 cells grown in serum-containing medium, and titers of virus were estimated by titration in 24-well plates with monitoring of enzyme activities.
(§2) Controls included the pAcGP67-GalNAc-T3-sol (15). The kinetic properties were determined with partially purified enzymes expressed in High Five™ cells. Partial purification was performed by consecutive chromatography on Amberlite IRA-95, DEAE-Sephacryl and CM-Sepharose essentially as described (16).
as §1, with “sequenced. Plasmids” for “sequenced.”, “pAcGP67-C2/4GnT-sol and pAcGP67-C2GnT-sol were” for “pAcGP67-C2/4GnT-sol was”, “activities. Controls included the pAcGP67-GalNAc-T3-sol (15).” for “activities.”
(§3) Standard assays were performed using culture supernatant from infected cells in 50 μl reaction mixtures containing 100 mM MES […], 10 mM EDTA, 10 mM 2-Acetamido-2-deoxy-D-glucono-1,5-lacton, 180 μM UDP-[^14C]-GlcNAc (6,000 cpm/nmol) (Amersham Pharmacia Biotech), and the indicated concentrations of acceptor substrates (Sigma and Toronto Research Laboratories Ltd., see Table I for structures). Semi-purified C2/4GnT was assayed in 50 μl reaction mixtures containing 100 mM MES (pH 7), 5 mM EDTA, 90 μM UDP-[^14C]-GlcNAc (3,050 cpm/nmol) (Amersham Pharmacia Biotech), and the indicated concentrations of acceptor substrates. Reaction products were quantified by chromatography on Dowex AGI-X8.

C2GnT = target: T2, C2GnT (Homo sapiens, UniProt Q02742); assay: C2GnT GlcNAc-transferase activity assay with acceptor substrates; type: biochemical; conditions: partially purified media of infected High Five cells, background subtracted; for Substrate specificity: C2GnT activity, 2 mM: acceptor substrate 2 mM; for Substrate specificity: C2GnT activity, 10 mM: acceptor substrate 10 mM
T2 construct: Plasmids pAcGP67-C2/4GnT-sol and pAcGP67-C2GnT-sol were co-transfected with; gp67 secretion signal of vector pAcGP67 (own knowledge of the vector); made in house; host or cells: Sf9 cells (baculovirus, culture supernatant)
T2 sequence (Q02742 33-428 limits assumed): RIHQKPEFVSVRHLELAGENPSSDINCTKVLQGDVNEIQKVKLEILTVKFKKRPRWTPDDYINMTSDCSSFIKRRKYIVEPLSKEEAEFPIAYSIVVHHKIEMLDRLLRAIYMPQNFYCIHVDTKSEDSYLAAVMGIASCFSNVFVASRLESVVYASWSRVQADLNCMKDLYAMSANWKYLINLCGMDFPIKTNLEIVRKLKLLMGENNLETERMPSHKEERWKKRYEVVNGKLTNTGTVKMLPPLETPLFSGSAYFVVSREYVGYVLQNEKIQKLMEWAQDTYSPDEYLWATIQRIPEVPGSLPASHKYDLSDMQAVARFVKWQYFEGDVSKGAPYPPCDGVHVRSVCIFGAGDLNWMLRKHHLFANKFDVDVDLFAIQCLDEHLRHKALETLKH
Protocol: as §2
as §1, with “sequenced. Plasmids” for “sequenced.”, “pAcGP67-C2/4GnT-sol and pAcGP67-C2GnT-sol were” for “pAcGP67-C2/4GnT-sol was”, “activities. Controls included the pAcGP67-GalNAc-T3-sol (15).” for “activities.”
as §3

Row | Compound | Substrate specificity: C2/4GnT activity, 2 mM (C2/4GnT) [nmol/h/mg] | Substrate specificity: C2/4GnT activity, 10 mM (C2/4GnT) [nmol/h/mg] | C2/4GnT activity with acceptor substrate (in words) (C2/4GnT) | Substrate specificity: C2GnT activity, 2 mM (C2GnT) [nmol/h/mg] | Substrate specificity: C2GnT activity, 10 mM (C2GnT) [nmol/h/mg] | C2/4GnT activity with donor substrate (in words) (C2/4GnT) | Substrate inhibition of C2/4GnT enzyme activity (C2/4GnT)
1 | CC(=O)N[C@H]1[C@H](O[C@H]2[C@@H](O)[C@@H](CO)O[C@@H](O[C@H]3[C@H](O)[C@@H](O)C(O)O[C@@H]3CO)[C@@H]2O)O[C@H](CO)[C@@H](O[C@@H]2O[C@H](CO)[C@H](O)[C@H](O)[C@H]2O)[C@@H]1O (mixture of isomers) [lacto-N-neo-tetraose] | <0.1 | <0.1 | no activity | <0.1 | <0.1 | – | –
2 | CC(=O)N[C@H]1C(O)O[C@H](CO)[C@H](O)[C@@H]1O (stereo partly drawn) [D-GalNAc] | <0.1 | <0.1 | – | <0.1 | <0.1 | – | –
3 | CC(=O)N[C@H]1[C@@H](OP(=O)(O)OP(=O)(O)OC[C@H]2O[C@@H](n3ccc(=O)[nH]c3=O)[C@H](O)[C@@H]2O)O[C@H](CO)[C@H](O)[C@@H]1O [UDP-GalNAc] | – | – | – | – | – | no activity | –
4 | CC(=O)N[C@H]1[C@@H](OP(=O)(O)OP(=O)(O)OC[C@H]2O[C@@H](n3ccc(=O)[nH]c3=O)[C@H](O)[C@@H]2O)O[C@H](CO)[C@@H](O)[C@@H]1O [UDP-GlcNAc, UDP-N-acetylglucosamine] | – | – | – | – | – | strict donor substrate specificity | –
5 | CC(=O)N[C@H]1[C@@H](Oc2ccc([N+](=O)[O-])cc2)O[C@H](CO)[C@H](O)[C@@H]1O [α-D-GalNAc-1-p-Nph] | <0.1 | <0.1 | no activity | <0.1 | <0.1 | – | –
6 | CC(=O)N[C@H]1[C@@H](Oc2ccc([N+](=O)[O-])cc2)O[C@H](CO)[C@H](O)[C@@H]1O[C@@H]1O[C@H](CO)[C@H](O)[C@H](O)[C@H]1O [β-D-Gal-(1-3)-α-D-GalNAc-1-p-Nph] | 16.1 | 21.8 | – | 16.2 | 23.6 | – | No substrate inhibition
7 | CC(=O)N[C@@H]1[C@@H](O[C@@H]2O[C@H](CO)[C@H](O)[C@H](O)[C@H]2O)[C@@H](O)[C@@H](CO)O[C@@H]1O [β-D-Gal-(1-3)-α-D-GalNAc] | 2.8 | 7.3 | – | 9.6 | 19.0 | – | –
8 | CC(=O)NC1C(OC2C(O)C(CO)OC(Oc3ccc([N+](=O)[O-])cc3)C2NC(C)=O)OC(CO)C(O)C1O [β-D-GlcNAc-(1-3)-α-D-GalNAc-1-p-Nph] | 5.2 | 7.4 | – | <0.1 | <0.1 | – | No substrate inhibition
9 | CO[C@@H]1O[C@H](CO)[C@H](O)[C@H](O[C@@H]2O[C@H](CO)[C@@H](O)[C@H](O)[C@H]2NC(C)=O)[C@H]1O [β-D-GlcNAc-(1-3)-β-D-Gal-1-Me] | <0.1 | <0.1 | no activity | <0.1 | <0.1 | – | –
